From PMC4551560, “Metabolic profiling of ligands for the chemokine receptor CXCR3 by liquid chromatography-mass spectrometry coupled to bioaffinity assessment” (Analytical and Bioanalytical Chemistry, 2015)

Assays:
CXCR3 [1] = biological target: T1, CXCR3 (Homo sapiens, UniProt P49682); assay: [3H]-VUF11211 radioligand displacement after LC nanofractionation, HEK293/CXCR3 membranes; […]-CXCL10 displacement also shown; assay type: binding
T1 construct: human CXCR3 in HEK293/CXCR3 membranes
T1 sequence (P49682 1-368): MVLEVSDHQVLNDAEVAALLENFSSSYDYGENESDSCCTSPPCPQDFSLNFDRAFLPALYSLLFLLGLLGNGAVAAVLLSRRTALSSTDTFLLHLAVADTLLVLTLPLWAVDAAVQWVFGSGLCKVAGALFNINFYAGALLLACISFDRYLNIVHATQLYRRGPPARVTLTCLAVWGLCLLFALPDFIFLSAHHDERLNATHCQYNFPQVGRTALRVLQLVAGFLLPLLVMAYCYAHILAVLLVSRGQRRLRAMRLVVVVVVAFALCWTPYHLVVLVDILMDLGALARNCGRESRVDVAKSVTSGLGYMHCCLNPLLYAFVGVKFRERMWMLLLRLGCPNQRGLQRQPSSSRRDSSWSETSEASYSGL

CXCR3 [2] = biological target: T1, CXCR3; assay: [3H]-VUF11211 radioligand displacement after LC nanofractionation, HEK293/CXCR3 membranes; assay type: binding

`CCNC(=O)c1cnc(N2CCN(C3CCN(Cc4ccc(Cl)cc4)CC3)[C@@H](CC)C2)c(Cl)c1` [VUF11211] was tested. Which Kd (CXCR3 [1]) did it give?
The Kd was 0.501 nM.

Which Ki (CXCR3 [2]) does the source give for `CCOc1ccc(-n2c([C@@H](C)N(Cc3cccnc3)C(=O)Cc3ccc(F)c(C(F)(F)F)c3)nc3ncccc3c2=O)cc1` [NBI-74330] here?
Its Ki is 12.6 nM.
